From patent publication US11660285B2, “Triptolide acrylate, preparation method therefor and use thereof” (GUANGDONG PROVINCIAL HOSPITAL OF TCM, priority 2019, dated 2023)

Assays:
PARP = test: Apoptosis-related proteins by western blot, PARP in BEL-7402 cells; type: cell-based; details: BEL-7402 cells, 0, 50 and 100 nM, 24 h, FIG. 10 B
Protocol: (§1) 2.4 Detection of Apoptosis-Related Proteins by Western Blot
(§2) BEL-7402 cells in the logarithmic growth phase were taken and inoculated in a 12-well plate at 5×10^5 cells per well. The cells treated with TPO with final concentrations of 0, 50 and 100 nM were used. After 24 h of treatment, the cells were collected, then lysate was added, and total proteins were extracted after sufficient lysis on ice. After the protein concentration was measured by a BCA method, the Loading buffer was added and boiled at 100° C. for 10 min to fully denature the proteins. The denatured sample was subjected to SDS-PAGE gel electrophoresis and electrically transferred to a PVDF membrane. The transferred PVDF membrane was sealed with a 5% BSA solution in TBST at a room temperature for 1 h, then incubated overnight with the corresponding primary antibody at 4° C., washed with TBST, incubated with the secondary antibody at a room temperature for 2 h, and washed with TBST again.
(§3) Finally, an ECL chemiluminescent solution was added to make the membrane strip emit light, electrophoresis results were obtained by pressing, developing and fixing with photosensitive films, and the change trends of apoptosis-related proteins among different treatment groups were observed.

HepG2 liver cancer cells = test: Cell proliferation by MTT method, HepG2; type: cell-based; details: HepG2, 10, 25, 50, 100 nM, 24 h, FIG. 9
Protocol: (§4) 2.2 Detection of Cell Proliferation by MMT Method
(§5) When the liver cancer cells grew to the logarithmic phase, the single cell suspension was inoculated in a 96-well plate at 1×10^4 cells per well. A blank group was a DMEM medium containing 10% fetal bovine serum, a control group was a solvent-added control (DMSO) cell group, and an experimental group was a cell group treated with drugs with different final concentrations (10, 25, 50, 100 nM). After 24 h of treatment, the medium supernatant was carefully aspirated, and 100 μL of MTT solution with a final concentration of […] diluted with the medium was added to each well. After the cells were cultured for 4 h, the medium was discarded, 150 μL of DMSO solution was added to each well, and shaking was performed at a low speed on the shaker for 10 min in the dark. After the crystals were fully dissolved, the absorbance (A) of each well was detected at 490 nm with the microplate reader. Cell proliferation inhibition rate=[(control group A450-blank group A450)−(experimental group A450−blank group A450)/(control group A450−blank group A450)]×100%.

Caspase-3 [1] = test: Apoptosis-related proteins by western blot, Caspase-3 in BEL-7402 cells; type: cell-based; details: BEL-7402 cells, 0, 50 and 100 nM, 24 h, FIG. 10 B
Protocol: as §1, §2, §3

Hep3B liver cancer cells [2] = test: Cell proliferation by MTT method, Hep3B; type: cell-based; details: Hep3B, 10, 25, 50, 100 nM, 24 h, FIG. 9
Protocol: as §4, §5

[3] = system: SMMC-7721 liver cancer cells; test: Cell proliferation by MTT method, SMMC-7721; type: cell-based; details: SMMC-7721, 10, 25, 50, 100 nM, 24 h, FIG. 9
Protocol: as §4, §5

caspase-8 = test: Western blot of tumor tissue, caspase-8; type: in vivo, nude mice; details: FIG. 7
Protocol: (§6) After the tumor tissue was thawed on ice, 50 mg of tumor tissue was taken into a tissue homogenization tube, and 500 μL of tissue lysate containing protease inhibitors and phosphatase inhibitors was added (usage of Roche brand tablets: 1 tablet/10 mL). After high-speed homogenization, centrifugation was performed at 12,000 rpm/min for 15 min, the supernatant was taken, and the protein concentration of the sample was measured by a BCA method. After the concentration of each sample was adjusted to the same, a protein loading buffer (5× Loading buffer) was added, denaturation was performed at 100° C. for 10 min, and preservation was performed at −80° C.
(§7) An appropriate brand of 10% pre-mixed polyacrylamide gel preparation solution was selected, and then, the gel (including separating gel and stacking gel) used in the experiment was prepared according to the instructions for use, which takes about 2 h. In the process of waiting for gel solidification, an SDS-PAGE gel electrophoresis solution was prepared in advance, the prepared gel was put in an electrophoresis tank, then the electrophoresis solution was added, and 10-30 μL of sample was added to each well of loading slot. After the sample runs through the stacking gel at a low pressure of 80 V, the voltage was adjusted to 100 V to make the sample run through the entire block of gel, so as to complete the SDS-PAGE gel electrophoresis operation. Secondly, a membrane transfer operation was performed (a PVDF membrane was pre-wetted in methanol for 5 min in advance), and membrane transfer conditions were: 300 mA, 120-150 min (corresponding to the time selection of the dividing line with a molecular weight of 100 kDa, wherein the selected membrane transfer time of the separated protein with a molecular weight less than 100 kDa was 120 min, and the selected membrane transfer time of the separated protein with a molecular weight greater than 100 kDa was 150 min). […] An ECL luminescent solution was used as a substrate to expose the target band, and the results were analyzed, recorded and counted.

Hep3B liver cancer cells [4] = test: Cell apoptosis by flow cytometry, Hep3B; type: cell-based; details: Hep3B, 0, 50 and 100 nM, 24 h, FIG. 10 A
Protocol: (§8) 2.3 Detection of Cell Apoptosis by Flow Cytometry
(§9) Liver cancer cells in the logarithmic growth phase were taken and inoculated in a 12-well plate at 5×10^5 cells per well. The cells treated with triptolide acrylate (hereinafter referred to as TPO) and triptolide triol (hereinafter referred to as TP-3-OH) with final concentrations of 0, 50 and 100 nM were used. After 24 h of treatment, the cells were digested and collected with 0.25% EDTA-free pancreatin, washed twice with pre-cooled PBS, and resuspended with 300 μL 1× Binding Buffer. 5 μL FITC Annexin V and 5 μL PI were added to each tube of cell suspension and incubated at a room temperature for 5 min in the dark, and the flow cytometry was used for detection within 1 h.

caspase-3 [5] = test: Western blot of tumor tissue, caspase-3; type: in vivo, nude mice; details: FIG. 7
Protocol: as §6, §7

[6] = system: BEL-7402 liver cancer cells; test: Cell proliferation by MTT method, BEL-7402; type: cell-based; details: BEL-7402, 10, 25, 50, 100 nM, 24 h, FIG. 9
Protocol: as §4, §5

[7] = system: HepG2 subcutaneous implanted tumor (HepG2-Luc); test: Inhibition experiment on HepG2 subcutaneous implanted tumor in nude mice; type: in vivo
Protocol: 2.1 Establishment of Animal Models
Establishment of HepG2-Luc cell line stably expressing luciferase: HepG2 cells in the logarithmic growth phase were taken and placed into a 24-well plate at 1×10^5/well, and cultured overnight to make the cells fully adherent. An original medium was replaced with 2 mL of fresh medium containing 6 μg/mL polybrene, about 1×10^5 transfection units of recombinant lentiviral particles stably expressing luciferase were added, and after incubation was performed for 4 h at 37° C., 2 mL of fresh medium was added to dilute the polybrene. The culture was continued, and a virus-containing medium was replaced with a fresh medium. The culture was continued, a medium containing puromycin was replaced for resistance screening, drug-resistant clones were picked and screened for two weeks, and finally, a cell line HepG2-Luc stably expressing luciferase was obtained.
Construction of bear mice by HepG2-Luc cell line: the cryopreserved HepG2-Luc cells were recovered to a 100 cm^2 culture flask, cultured in vitro to the logarithmic growth phase and digested with 0.25% trypsin containing EDTA, the cells were collected and centrifuged at 1000 rpm for 3 min at a room temperature, the supernatant was discarded, the cells were washed with a serum-free DMEM medium, and the cell viability was detected by a trypan blue exclusion assay (only if the proportion of viable cells exceeded 95%, the experimental requirements were met). A small amount of the serum-free DMEM medium was added to resuspend the cells, and the cells were counted. […]
Detection of tumor growth by animal in-vivo imaging system: each nude mouse was intraperitoneally injected with 150 μL of 30 mg/kg […] substrate and observed for 15 min, the nude mouse was anesthetized with diethyl ether in an induction box for 5 min, the anesthetized nude mouse was quickly transferred into an observation box, the head of the nude mouse was aligned and fixed in a conical nasal plug, parameters were set for fluorescence imaging (if there was tumor growth, fluorescence signals with different intensities can be detected at the corresponding positions), after the imaging, the nude mouse was transferred into the induction box again, and an oxygen valve was turned on to revive the nude mouse.
18 random numbers were generated by Excel software, the random numbers were corresponding to the numbers of the nude mice, and the nude mice were equally divided into model groups according to the size of the random numbers, namely a low-dose group (100 μg/kg), a middle-dose group (200 μg/kg) and a high-dose group (400 μg/kg). After random grouping, the nude mice were weighed and the tumor volume was measured. […]

p53 = test: Western blot of tumor tissue, p53; type: in vivo, nude mice; details: FIG. 7
Protocol: as §6, §7

[8] = system: BEL-7402 liver cancer cells; test: Cell apoptosis by flow cytometry, BEL-7402; type: cell-based; details: BEL-7402, 0, 50 and 100 nM, 24 h, FIG. 10 A
Protocol: as §8, §9

Huh7 cells = test: Scratch test; type: cell-based; details: 50 nM, 24 and 48 h, serum-free medium; P<0.05; FIG. 11
Protocol: Huh7 cells in the logarithmic growth phase were taken and inoculated in a 24-well plate at 5×10^5 cells per well. After the cells were overgrown, a sterile pipette tip was used for scratching, the cells were washed 3 times with PBS after scratching, the scratched cells were removed, a serum-free medium containing 50 nM TPO was added to continue the culture for 24 and 48 h, and photographing was performed. The scratch photo was analyzed by Image J software, the scratch distance was calculated, and the scratch healing was evaluated.

LO2 cells = test: Cell toxicity experiment (LDH activity of culture supernatant); type: cell-based; details: normal liver cells, 0, 10, 50 and 100 nM, 24 h; FIG. 8
Protocol: 2.1 Cell Toxicity Experiment
Logarithmically growing LO2 cells were taken and inoculated in a 96-well plate at 1×10^4 cells per well. The cells treated with drugs with final concentrations of 0, 10, 50 and 100 nM were used respectively, the culture supernatant was collected after 24 h, and the LDH activity of the culture supernatant was detected by the Roche biochemical analyzer.

In the case of `C=CC(=O)O[C@@H]1[C@@]2(C(C)C)O[C@H]2[C@@H]2O[C@]23[C@]12O[C@H]2C[C@H]1C2=C(CC[C@@]13C)C(=O)OC2` [triptolide acrylate], the “cleavage of PARP” value (PARP) is reported as “significantly increased”, the “inhibiting effect on proliferation” value (HepG2 liver cancer cells) is reported as “significant inhibiting effect” and the “cleavage of Caspase-3” value (Caspase-3 [1]) is reported as “significantly increased”. For the same compound, the “inhibiting effect on proliferation” value (Hep3B liver cancer cells [2]) was “significant inhibiting effect”, the “inhibiting effect on proliferation” value [3] was “significant inhibiting effect” and the “protein expression quantity of caspase-8” value (caspase-8; high-dose group (400 μg/kg)) was “reduce”. For the same compound, the “protein expression quantity of caspase-8” value (caspase-8; low-dose group (100 μg/kg)) was “reduce”, the “protein expression quantity of caspase-8” value (caspase-8; middle-dose group (200 μg/kg)) was “significantly increase” and the “proportion of Annexin V and PI positive cells (induction of apoptosis)” value (“proportion” for short) (Hep3B liver cancer cells [4]) was “significantly increased”. The “protein expression quantity of caspase-3” value (caspase-3 [5]; high-dose group (400 μg/kg)) was “significantly increase”, the “protein expression quantity of caspase-3” value (caspase-3 [5]; low-dose group (100 μg/kg)) was “reduce” and the “protein expression quantity of caspase-3” value (caspase-3 [5]; middle-dose group (200 μg/kg)) was “significantly increase”. For the same compound, the “inhibiting effect on proliferation” value [6] was “significant inhibiting effect”, the “tumor volume (subcutaneous implanted tumor seen on skin surface)” value ([7]; administration group (especially the high-dose group) vs model group, dose-dependent, FIG. 5) was “significantly less than that of the model group” and the “tumor volume of tumor tissues stripped after sacrifice” value ([7]; administration group vs model group, FIG. 6) was “less than that of the model group”. The “fluorescence signals in the tumors of the nude mice” value ([7]; each dose group (100, 200, 400 μg/kg), intraperitoneal injection once a day for 13 days, compared with the model group, dose-dependent, FIG. 4) was “significantly weakened”, the “fluorescence signal in the tumors of the nude mice” value ([7]; high-dose group (400 μg/kg), intraperitoneal injection once a day for 13 days, FIG. 4) was “weakened more obviously” and the “protein expression quantity of p53” value (p53; high-dose group (400 μg/kg)) was “significantly increase”. The “protein expression quantity of p53” value (p53; low-dose group (100 μg/kg)) was “no significant change”, the “protein expression quantity of p53” value (p53; middle-dose group (200 μg/kg)) was “no significant change” and the “proportion” value [8] was “significantly increased”. The “migration of Huh7 cells (scratch healing)” value (Huh7 cells) was “significantly inhibit” and the “LDH activity of the culture supernatant of LO2 cells” value (LO2 cells) was “significantly lower than that of the TPL treatment group”.
For “triptolide triol [TP-3-OH, reference compound]”, the “inhibiting effect on proliferation” value (HepG2 liver cancer cells) was “no obvious inhibiting effect”, the “inhibiting effect on proliferation” value (Hep3B liver cancer cells [2]) was “no obvious inhibiting effect” and the “inhibiting effect on proliferation” value [3] was “no obvious inhibiting effect”. The “proportion” value (Hep3B liver cancer cells [4]) was “not obvious”, the “inhibiting effect on proliferation” value [6] was “no obvious inhibiting effect” and the “proportion” value [8] was “not obvious”. For the same compound, the “LDH activity of the culture supernatant of LO2 cells” value (LO2 cells) was “significantly lower than that of the TPL treatment group”.
